Experimental data from patent US10703723B2 (Truly Translational Sweden AB, priority 2017, dated 2020).
Read-outs that look alike come from different tables or passages of the source.

Key:
[1] = appearance of test formulations / solubility over time in PBC buffer (pH 7.4); format: physicochemical; details: 0.5% CMC in phosphate buffer (pH 7.4)
in vivo = details: rat, po, 40 mg/kg
Procedure: In accordance with Swedish legislations for preclinical in vivo studies in rodents and following evaluation and approval of the experimental procedures the local ethical committee (M388-12), following acclimatization to the housing conditions for a minimum of 7 days after arrival, male Wistar (Hannover) rats (Taconic, Denmark), average weight 300 g; average age 8-10 weeks, were treated with test items (see table 1); 12-16 h prior to dosing all food except for an amount equivalent to a half day consumption was removed. […] The rats were conscious during sample collection and the blood was taken from the sub-lingual vein. Blood samples were collected from each rat over a period of up to 24 h. At each time point two aliquots of 50 μL each was added to a vial containing 150 μL of sterile water. The samples were mixed immediately and stored in −18° C. until preparation for bioanalysis commenced. All formulations were prepared on the same day that dosing took place. The body weight of the rat was recorded before dosing. The weight of the syringe was recorded before and after administration to allow calculation of the actual amount of test sample delivered. Actual dose administered was used during the evaluation of the data.
Samples and standards were injected by a HTC PAL from CTC analytics into an LC system from Shimadzu consisting of a high pressure gradient system of two LC-10 AD pumps controlled by a SCL-10A controller from Shimadzu. The samples were separated using reverse-phase chromatography with gradient elution at a flow rate of 0.8 mL/min. Mobile phases were A:94.9/5/0.1 water/acetonitrile/formic acid and B:5/94.9/0.1 water/acetonitrile/formic acid. Gradient started at 0% B and increased linearly to 100% B in 4 minutes, 100% B was kept for 0.5 minutes and then the system returned to 0% B in 0.1 minutes. The system was equilibrated for 1.4 minutes until the total run time of 6 minutes. The eluent was analyzed by a Quattro Ultima from Micromass equipped with an electrospray ion source. Data was collected and calibrations were calculated by MassLynx 4.0 software. […] The eluent was ionized by negative ion electrospray and the mrm transition from 397 to 197 m/z was monitored.
The diluted blood sample (50 μL blood, 150 μL water) was thawed and mixed. 400 μL of acetonitrile, to precipitate the protein was added and mixed again. The sample was centrifuged at 5000 g for 5 minutes. 100 μL of the supernatant was transferred to a 300 μL glass vial and 100 μL of water was added to reduce the acetonitrile concentration.
The concentration of the standard curve was in the range from 5 nM to 15625 nM. Samples with analyte concentrations above the upper limit of quantification were diluted with matrix to reach within the assay range. A non-compartmental analysis (NCA) was performed using the Phoenix WinNonLin analysis tool.

[2] = solubility in de-ionized water at rt after 24 h; details: thermodynamic from solid
Procedure: The produced examples were characterized regarding identity, crystal modification, thermal properties, melting point, solubility in water, purity, and hygroscopicity using the following methods:
The flow rate was 1.0 mL/min, injection volume 5 μL and detection wavelengths 358 nm (for assay) and 260 nm (for chromatographic purity). Quantitation was performed using external standard methodology. The assay method has been validated with respect to selectivity, repeatability and linearity.

[3] = ambient temperature; cited from earlier work
[4] = cited from earlier work; for time to steady state levels: sulfasalazine therapy
[5] = RA, 24 weeks, cited from earlier work

solubility at 24 h [2] [µg/mL]	SMILES	Appearance of test formulations t = 0 h [1]	Appearance of test formulations t = 4 h [1]	Ratio SP to SSZ for AUC0-4 h (h*nmol/L) (in vivo)	Ratio SP to SSZ for Cmax (nmol/L) (in vivo)	also measured
	CC(C)NC(=O)COC(=O)c1cc(N=Nc2ccc(S(=O)(=O)Nc3ccccn3)cc2)ccc1O [Compound 2d, 2-(isopropylamino)-2-oxoethyl-2-hydroxy-5-((4-(N-(pyridine-2-yl)sulfamoyl)phenyl)diazenyl) benzoate]	clear solution	clear solution	2:1	2:1	
> 5000	O=C(OCC(=O)N1CCOCC1)c1cc(/N=N/c2ccc(S(=O)(=O)Nc3ccccn3)cc2)ccc1O [Compound 1a, 2-morpholino-2-oxoethyl-2-hydroxy-5-((4-(N-(pyridine-2-yl)sulfamoyl)phenyl)diazenyl) benzoate]	clear solution	clear solution			
> 1000	CCN(C)C(=O)COC(=O)c1cc(/N=N/c2ccc(S(=O)(=O)Nc3ccccn3)cc2)ccc1O [Compound 4a, 2-(ethyl(methyl)amino)-2-oxoethyl-2-hydroxy-5-((4-(N-(pyridine-2-yl)sulfamoyl)phenyl)diazenyl) benzoate]	clear solution	clear solution			
	O=C(O)c1cc(/N=N/c2ccc(S(=O)(=O)Nc3ccccn3)cc2)ccc1O [Sulfasalazine, 2-hydroxy-5-[2-[4-[(2-pyridinylamino)sulfonyl]phenyl]diazenyl]-benzoic acid]					Tmax (in vivo; male, Wistar (Hannover)): 0.25 h; Tmax for SP (in vivo; male, Wistar (Hannover)): 4 h; water solubility [3]: less than 0.05 mg/mL; time to steady state levels of sulfasalazine ([4]; multiple dosing): ≤ 24 h; overall clinical status ([5]; fast acetylators, 3 g/day): marked improvement; overall clinical status ([5]; slow acetylators, half of the SSZ dose (1.5 g/d)): remained unchanged
> 500	CN(C)C(=O)COC(=O)c1cc(/N=N/c2ccc(S(=O)(=O)Nc3ccccn3)cc2)ccc1O [Compound 3a, 2-(dimethylamino)-2-oxoethyl-2-hydroxy-5-((4-(N-(pyridine-2-yl)sulfamoyl)phenyl)diazenyl) benzoate]	clear solution	milky			
> 5000	CNC(=O)COC(=O)c1cc(/N=N/c2ccc(S(=O)(=O)Nc3ccccn3)cc2)ccc1O [Compound 2a, 2-(methylamino)-2-oxoethyl-2-hydroxy-5-((4-(N-(pyridine-2-yl)sulfamoyl)phenyl)diazenyl) benzoate]	clear solution	clear solution			
	CCN(CC)C(=O)COC(=O)c1cc(N=Nc2ccc(S(=O)(=O)Nc3ccccn3)cc2)ccc1O [Compound 3b, 2-(diethylamino)-2-oxoethyl-2-hydroxy-5-((4-(N-(pyridine-2-yl)sulfamoyl)phenyl)diazenyl) benzoate]	clear solution	clear solution	8:1	5:1	
	COCCNC(=O)COC(=O)c1cc(N=Nc2ccc(S(=O)(=O)Nc3ccccn3)cc2)ccc1O [Compound 2h, 2-(2-methoxylethyl)amino)-2-oxoethyl-2-hydroxy-5-((4-(N-(pyridine-2-yl)sulfamoyl)phenyl)diazenyl) benzoate]	clear solution	clear solution	8:1	6:1	
	O=C(COC(=O)c1cc(N=Nc2ccc(S(=O)(=O)Nc3ccccn3)cc2)ccc1O)NCC1CC1 [Compound 2f, 2-((cyclopropylmethyl)amino)-2-oxoethyl-2-hydroxy-5-((4-(N-(pyridine-2-yl)sulfamoyl)phenyl)diazenyl) benzoate]	clear solution	milky	6:1	2:1	
	CC(=O)Nc1ccc(S(=O)(=O)Nc2ccccn2)cc1 [acetylated sulfapyridine]					time to steady state levels [4]: 72 h
	Nc1ccc(S(=O)(=O)Nc2ccccn2)cc1 [sulfapyridine]					elimination half-life ([4]; fast acetylators): 5.5 h; total plasma clearance ([4]; fast acetylators): 135.3 mL/min; time after which metabolite can be detected in the plasma ([4]; following oral administration of sulfasalazine): about 10 hours; plasma protein binding ([4]; no difference between fast and slow acetylators): ca. 50 °; elimination half-life ([4]; slow acetylators): 15.3 h; total plasma clearance ([4]; slow acetylators): 36.9 mL/min; time to steady state levels [4]: 72 h
